The values below come from US20210308077A1, “COMBINATIONS INCLUDING BETA-ADRENORECEPTOR AGONISTS FOR TREATMENT OF PARKINSON`S DISEASE AND MOVEMENT DISORDERS” (The Brigham and Women`s Hospital, Inc., priority 2017, published 2021).

Test [1] concerns α-synuclein protein and mRNA in substantia nigra. Briefly: Snca expression in substantia nigra, dose-finding mouse trial. The test is classed as in vivo. To be noted: 10 mg/kg intraperitoneal, 24 hours, P<0.05. The protocol:
The clenbuterol pharmacokinetic (PK) study was done in wild-type C57BL/6J male mice by ChemPartner Co., LTD in Shanghai. The study was done with 4 groups of four mice; one control group and three treatment groups with clenbuterol administered via intraperitoneal injection at dosages of 1, 5 and 10 mg/kg once every 24 hours. Following completion of the administration schedule, blood samples were collected at various time points (e.g. 0.25, 2, 8, and 24 hours), from the four mice per group per time point (final time point of 24 hours post injection). Mice were sacrificed following each blood collection and brains were removed and snap frozen. […] Plasma and brain samples were analyzed by LC-MS/MS for compound concentration at each of three concentrations and at each time point. Standard pharmacokinetic parameters (e.g. AUClast, AUCINF, terminal elimination half-life (t1/2), clearance, volume of distribution, time at maximum observed plasma concentration, etc.) were determined in both plasma and brain tissueby WinNonlin V 6.2 statistics software (Pharsight Corporation, California, USA) using a non-compartmental model. […]
Protein lysis buffer containing 320 mM sucrose, 5 mM NaF, 1 mM Na3VO4, 10 mM Tris (pH 7.4), 1 mM EGTA, and 1 mM EDTA was used for mice brain tissue lysis. […] Total protein concentrations were determined by BCA assay (Thermo Scientific) according to the manufacturer's instructions. […]

The subject of the next test is MPTP mouse model. Kind of test: controlled trial in the MPTP mouse model. The test is classed as in vivo. To be noted: MPTP 20 mg/kg i.p. five days; clenbuterol 10 mg/kg i.p. once then oral gavage daily for two weeks. The protocol: Male C57bl/6 mice (8-10 weeks old) were analyzed. N-methyl-4-phenyl-1,2,3,6-tetrahydropyridine (MPTP-HCl; 20 mg/kg, measured as free base; Sigma, St. Louis, Mo.) was administered to mice intraperitoneally once per day for five consecutive days similar to described previously (26,36). Eight MPTP-treated mice assigned to the clenbuterol treatment group received one 10 mg/kg i.p. injection of clenbuterol (two days prior to MPTP treatment start) and then clenbuterol via oral gavage (10 mg/kg) daily for two weeks (starting on the day of the first MPTP treatment). Another eight MPTP-treated mice assigned to the vehicle treatment group received only oral drinking water (without clenbuterol). […]
After overnight postfixation in 4% paraformaldehyde, brains were cryoprotected in 30% sucrose before cryosectioning into […] (used for stereology) free-floating sections, obtained as described previously (36). […] TH+ cells were analyzed by sterological estimates as described previously (36). Briefly, the total number of TH+neurons in the SNc was calculated by optical fractionation using Stereo Investigator (version 6; MicroBrightField, Williston, Vt.). […] Total number of TH+ neurons was determined using the optical fractionator. Adjacent tissue was also stained using cresyl violet (Sigma, 0.01% for 5 min) to confirm cell loss as assessed by TH analysis.

`CC(C)(C)NCC(O)c1cc(Cl)c(N)c(Cl)c1` (stereo not shown) [clenbuterol]: in test [1], the “nigral α-synuclein mRNA levels” value is on record as “significant reduction” and the “nigral α-synuclein protein levels” value is “significant reduction”. In the test on MPTP mouse model, the “TH+ neurons in the SNpc” value is recorded as “abrogated the MPTP-induced loss of TH+ neurons” and the “cresyl-violet (CV) stained cells in the SNpc” value was “blocked the loss of cresyl-violet (CV) stained cells”.
